Measured values published in patent publication US6933260B2, “Avermectin B1 derivatives having an aminosulfonyloxy substituent in the 4′-position” (Syngenta Crop Protection, Inc., priority 2001, dated 2005).

Key:
Type in all cases: in vivo
Diabrotica balteata = assay: Action against Diabrotica balteata (spray on maize seedlings); settings: 144 h, 12.5 ppm spray, larvae in the second stage, 6 days, read-out: percentage reduction in population (% activity)
Protocol: Maize seedlings are sprayed with an aqueous emulsion spray mixture comprising 12.5 ppm of the test compound and, after the spray-coating has dried, the maize seedlings are populated with 10 Diabrotica balteata larvae in the second stage and then placed in a plastics container. 6 days later, the percentage reduction in population (% activity) is determined by comparing the number of dead larvae on the treated plants with that on untreated plants.

Plutella xylostella = assay: Action against Plutella xylostella caterpillars (spray on cabbage plants); settings: 72 h, 12.5 ppm spray, caterpillars in the first stage, 3 days, read-out: percentage reduction in population and percentage reduction in feeding damage (% activity)
Protocol: Young cabbage plants are sprayed with an aqueous emulsion spray mixture comprising 12.5 ppm of test compound. After the spray-coating has dried, the cabbage plants are populated with 10 caterpillars of Plutella xylostella in the first stage and placed in a plastics container. Evaluation is made 3 days later. The percentage reduction in population and the percentage reduction in feeding damage (% activity) are determined by comparing the number of dead caterpillars and the feeding damage on the treated plants with that on the untreated plants.

Tetranychus urticae = assay: Action against Tetranychus urticae (spray on bean plants); settings: 144 h, 12.5 ppm spray, mixed population, 6 days at 25° C., read-out: percentage reduction in population (% activity)
Protocol: Young bean plants are populated with a mixed population of Tetranychus urticae and sprayed one day later with an aqueous emulsion spray mixture comprising 12.5 ppm of test compound. The plants are incubated for 6 days at 25° C. and subsequently evaluated. The percentage reduction in population (% activity) is determined by comparing the number of dead eggs, larvae and adults on the treated plants with that on untreated plants.

Spodoptera littoralis = assay: Action against Spodoptera littoralis (foliar spray on soybean plants); settings: 72 h, 12.5 ppm spray, caterpillars in the first stage, 3 days, read-out: percentage reduction in population and percentage reduction in feeding damage (% activity)
Protocol: Young soybean plants are sprayed with an aqueous emulsion spray mixture comprising 12.5 ppm of test compound and, after the spray-coating has dried, the plants are populated with 10 caterpillars of Spodoptera littoralis in the first stage and then placed in a plastics container. 3 days later, the percentage reduction in population and the percentage reduction in feeding damage (% activity) are determined by comparing the number of dead caterpillars and the feeding damage on the treated plants with that on untreated plants.

Measured: inhibition at 12.5 ppm

CCC(C)[C@H]1O[C@]2(C=C[C@@H]1C)C[C@@H]1C[C@@H](C/C=C(\C)[C@@H](O[C@H]3C[C@H](OC)[C@@H](O[C@H]4C[C@H](OC)[C@@H](OS(=O)(=O)N(C)C)[C@H](C)O4)[C@H](C)O3)[C@@H](C)/C=C/C=C3\CO[C@@H]4[C@H](O)C(C)=C[C@@H](C(=O)O1)[C@]34O)O2 (some centres unmarked) [P.7, 4″-dimethylaminosulfonyloxy-avermectin B1]
> 80%: Diabrotica balteata | Plutella xylostella | Tetranychus urticae

CCC(C)[C@H]1O[C@]2(C=C[C@@H]1C)C[C@@H]1C[C@@H](C/C=C(\C)[C@@H](O[C@H]3C[C@H](OC)[C@@H](O[C@H]4C[C@H](OC)[C@@H](OS(N)(=O)=O)[C@H](C)O4)[C@H](C)O3)[C@@H](C)/C=C/C=C3\CO[C@@H]4[C@H](O)C(C)=C[C@@H](C(=O)O1)[C@]34O)O2 (some centres unmarked) [P.1, 4″-sulfamoyloxy-avermectin B1]
> 80%: all assays above

CCNS(=O)(=O)O[C@H]1[C@H](C)O[C@@H](O[C@H]2[C@H](C)O[C@@H](O[C@@H]3/C(C)=C/C[C@@H]4C[C@@H](C[C@]5(C=C[C@H](C)[C@@H](C(C)CC)O5)O4)OC(=O)[C@@H]4C=C(C)[C@@H](O)[C@H]5OC/C(=C\C=C\[C@@H]3C)[C@]54O)C[C@@H]2OC)C[C@@H]1OC (some centres unmarked) [P.3, 4″-ethylaminosulfonyloxy-avermectin B1]
> 80%: Diabrotica balteata | Plutella xylostella | Tetranychus urticae

CCC(C)[C@H]1O[C@]2(C=C[C@@H]1C)C[C@@H]1C[C@@H](C/C=C(\C)[C@@H](O[C@H]3C[C@H](OC)[C@@H](O[C@H]4C[C@H](OC)[C@@H](OS(=O)(=O)NC)[C@H](C)O4)[C@H](C)O3)[C@@H](C)/C=C/C=C3\CO[C@@H]4[C@H](O)C(C)=C[C@@H](C(=O)O1)[C@]34O)O2 (some centres unmarked) [P.2, 4″-methylaminosulfonyloxy-avermectin B1]
> 80%: all assays above
